Usually Ki stands for a dissociation constant, usually derived from enzyme kinetics or from competition with a known ligand. Low values mean tighter binding, high ones weaker binding. The inhibition is the drop in the measured response relative to a control, in per cent.

The text below walks through data of publication PMC5769128, “Human UDP-Glucuronosyltransferase 2B4 and 2B7 Are Responsible for Naftopidil Glucuronidation in Vitro” (Frontiers in Pharmacology, 2018).

In data set [1] the target is T1, UGT2B7 (Homo sapiens, UniProt P16662).
T1 sequence (P16662 24-529): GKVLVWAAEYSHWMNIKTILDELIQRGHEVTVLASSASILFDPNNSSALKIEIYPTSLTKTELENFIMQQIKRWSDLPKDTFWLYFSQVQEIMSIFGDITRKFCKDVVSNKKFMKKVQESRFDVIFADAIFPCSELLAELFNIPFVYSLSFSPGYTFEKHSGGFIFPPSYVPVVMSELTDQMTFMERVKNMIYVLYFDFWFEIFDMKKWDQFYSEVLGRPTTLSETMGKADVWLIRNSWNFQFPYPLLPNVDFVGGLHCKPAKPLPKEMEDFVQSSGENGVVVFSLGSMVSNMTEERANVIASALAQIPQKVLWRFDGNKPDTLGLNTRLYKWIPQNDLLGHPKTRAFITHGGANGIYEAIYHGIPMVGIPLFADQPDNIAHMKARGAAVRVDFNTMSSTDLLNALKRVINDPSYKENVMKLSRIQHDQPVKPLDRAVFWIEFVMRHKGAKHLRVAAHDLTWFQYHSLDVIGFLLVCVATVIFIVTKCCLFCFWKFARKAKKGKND
In words: Inhibition of zidovudine glucuronidation in pooled HLM. It is filed as in vitro ADME. Set-up: tissue BD Gentest; host or cells: pooled human liver microsomes. Particulars: substrate zidovudine, enzyme HLM.

The next data set deals with T2, UGT2B15 (Homo sapiens, UniProt P54855).
T2 construct: purchased BD Gentest
T2 sequence (P54855 24-530): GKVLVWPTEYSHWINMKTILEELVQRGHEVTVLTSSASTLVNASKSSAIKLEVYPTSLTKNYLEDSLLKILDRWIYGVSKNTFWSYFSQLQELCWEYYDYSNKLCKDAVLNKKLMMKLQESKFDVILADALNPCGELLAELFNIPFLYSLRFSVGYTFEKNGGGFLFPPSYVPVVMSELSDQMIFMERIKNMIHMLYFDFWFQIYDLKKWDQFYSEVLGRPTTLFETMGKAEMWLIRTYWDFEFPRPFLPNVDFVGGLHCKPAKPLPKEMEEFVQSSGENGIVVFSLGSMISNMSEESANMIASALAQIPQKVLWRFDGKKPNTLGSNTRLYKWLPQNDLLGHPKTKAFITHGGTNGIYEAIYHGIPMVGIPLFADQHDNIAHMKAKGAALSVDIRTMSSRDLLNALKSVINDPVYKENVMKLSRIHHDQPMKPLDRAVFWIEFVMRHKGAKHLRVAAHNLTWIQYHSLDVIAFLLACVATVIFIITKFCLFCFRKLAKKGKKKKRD
In words: Inhibition screening of recombinant UGTs by NAF enantiomers, UGT2B15 (4-MU). In kind it is in vitro ADME. Particulars: recombinant UGT2B15, probe 4-MU, 100 μM NAF enantiomer, read-out: Inhibition of 4-MU-G formation. On the procedure: (§1) The inhibition screening study was performed by investigating the 12 recombinant UGTs with 10 and 100 μM NAF enantiomer. […] 4-MU, as a non-specific substrate, was added to the other incubated samples. Instead of NAF enantiomers, the same volume of water was added to be the control sample. […] The formation of 4-MU-G and TFP-G produced from the 12 incubation system were analyzed by HPLC. The instrument parameters for the LC were as follows: system, Agilent 1260; Agilent Eclipse Plus C18 (2.1 mm × 50 mm, 1.8 μm, Santa Clara, CA, United States); mobile phase, methanol: 0.1% formic acid in water (0–3 min, 35:65; 3.1–4.5 min, 65:35; 4.6–5 min, 35:65); flow rate, 0.4 mL/min; column temperature, 25°C; and injection volume, 2 μL. The retention times of 4-MU, 4-MU-G, TFP, TFP-G, and MU (IS) were 1.5, 0.5, 2.2, 1.8, and 1.0 min, respectively.

For another data set, the target named is T3, UGT2B17 (Homo sapiens, UniProt O75795).
T3 construct: purchased BD Gentest
T3 sequence (O75795 24-530): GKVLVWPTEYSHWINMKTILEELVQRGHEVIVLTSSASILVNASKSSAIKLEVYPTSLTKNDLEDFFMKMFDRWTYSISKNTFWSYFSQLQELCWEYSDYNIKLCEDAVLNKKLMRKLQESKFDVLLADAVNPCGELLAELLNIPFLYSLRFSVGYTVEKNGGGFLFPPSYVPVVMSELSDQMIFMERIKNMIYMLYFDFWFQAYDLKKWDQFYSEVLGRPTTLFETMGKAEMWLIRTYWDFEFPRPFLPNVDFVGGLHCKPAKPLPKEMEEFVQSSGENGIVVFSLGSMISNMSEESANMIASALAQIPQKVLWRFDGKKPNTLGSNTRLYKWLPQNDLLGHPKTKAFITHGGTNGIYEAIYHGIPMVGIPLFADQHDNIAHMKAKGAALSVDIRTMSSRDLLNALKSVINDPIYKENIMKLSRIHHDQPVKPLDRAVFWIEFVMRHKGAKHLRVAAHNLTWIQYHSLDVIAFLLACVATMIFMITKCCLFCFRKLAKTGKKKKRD
In words: Inhibition screening of recombinant UGTs by NAF enantiomers, UGT2B17 (4-MU). Particulars: recombinant UGT2B17, probe 4-MU, 100 μM NAF enantiomer, read-out: Inhibition of 4-MU-G formation. In kind it is in vitro ADME. The protocol:
as §1

The target in data set [2] is T1, UGT2B7. In words: biochemical.
Method: The inhibition of UGT1A9 and UGT2B7 by NAF enantiomer was investigated using the pooled HLM, UGT1A9, and UGT2B7 with concentrations similar to that of the NAF enantiomer. Propofol, which was used as the specific substrate of UGT1A9, was added to the incubation. […] Inhibitor constants (Ki value) were estimated by fitting the expressions for competitive, non-competitive, and mixed inhibition models with Dixon plots and Lineweaver–Burk plots.
Another data set concerns the target T4, UGT1A7 (Homo sapiens, UniProt Q9HAW7).
T4 construct: purchased BD Gentest
T4 sequence (Q9HAW7 26-530): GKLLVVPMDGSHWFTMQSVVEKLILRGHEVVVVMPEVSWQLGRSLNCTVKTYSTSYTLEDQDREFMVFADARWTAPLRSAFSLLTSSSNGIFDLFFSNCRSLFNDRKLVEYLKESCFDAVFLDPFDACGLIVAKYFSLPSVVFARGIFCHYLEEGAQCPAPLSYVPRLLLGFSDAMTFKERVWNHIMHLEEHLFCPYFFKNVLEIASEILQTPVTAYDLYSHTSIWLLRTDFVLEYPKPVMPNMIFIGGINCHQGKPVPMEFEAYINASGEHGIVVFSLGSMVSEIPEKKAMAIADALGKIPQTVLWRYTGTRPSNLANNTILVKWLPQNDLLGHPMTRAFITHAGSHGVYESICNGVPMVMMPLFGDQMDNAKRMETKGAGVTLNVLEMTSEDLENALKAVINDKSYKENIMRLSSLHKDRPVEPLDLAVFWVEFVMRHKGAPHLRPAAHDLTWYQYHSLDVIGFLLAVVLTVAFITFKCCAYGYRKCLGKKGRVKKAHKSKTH
The data set can be described thus: Inhibition screening of recombinant UGTs by NAF enantiomers, UGT1A7 (4-MU). Particulars: recombinant UGT1A7, probe 4-MU, 100 μM NAF enantiomer, read-out: Inhibition of 4-MU-G formation. It is filed as in vitro ADME. On the procedure:
as §1

The structures appear in SMILES notation.

As to `COc1ccccc1N1CCN(C[C@H](O)COc2cccc3ccccc23)CC1` [S(-)-NAF], the Inhibition type entry on UGT2B7 [1] is “Competitive”. The values for the Ki at UGT2B7 [1] and on UGT2B7 [2] were 35.7 ± 4.1 µM and 18.5 ± 3.3 µM, respectively. Also, the inhibition at 100 μM at UGT2B15, at UGT2B17 and on UGT1A7 was over 75% throughout.

As for `COc1ccccc1N1CCN(C[C@@H](O)COc2cccc3ccccc23)CC1` [R(+)-NAF], the Inhibition type result on UGT2B7 [1] is “Competitive”. Further, the Ki is 64.9 ± 7.8 µM at UGT2B7 [1] and 12.1 ± 2.2 µM at UGT2B7 [2]. Also, the inhibition at 100 μM at UGT2B15, on UGT2B17 and on UGT1A7 was over 75% each time.
